This is an account of results in paper PMC8746632, “Design and Synthesis of New Thiophene/Thieno[2,3-d]pyrimidines along with Their Cytotoxic Biological Evaluation as Tyrosine Kinase Inhibitors in Addition to Their Apoptotic and Autophagic Induction” (Molecules, 2021).

The target in the test is T1, FLT3 kinase (Fms-like tyrosine kinase 3) (Homo sapiens, UniProt P36888).
T1 sequence (P36888 27-993): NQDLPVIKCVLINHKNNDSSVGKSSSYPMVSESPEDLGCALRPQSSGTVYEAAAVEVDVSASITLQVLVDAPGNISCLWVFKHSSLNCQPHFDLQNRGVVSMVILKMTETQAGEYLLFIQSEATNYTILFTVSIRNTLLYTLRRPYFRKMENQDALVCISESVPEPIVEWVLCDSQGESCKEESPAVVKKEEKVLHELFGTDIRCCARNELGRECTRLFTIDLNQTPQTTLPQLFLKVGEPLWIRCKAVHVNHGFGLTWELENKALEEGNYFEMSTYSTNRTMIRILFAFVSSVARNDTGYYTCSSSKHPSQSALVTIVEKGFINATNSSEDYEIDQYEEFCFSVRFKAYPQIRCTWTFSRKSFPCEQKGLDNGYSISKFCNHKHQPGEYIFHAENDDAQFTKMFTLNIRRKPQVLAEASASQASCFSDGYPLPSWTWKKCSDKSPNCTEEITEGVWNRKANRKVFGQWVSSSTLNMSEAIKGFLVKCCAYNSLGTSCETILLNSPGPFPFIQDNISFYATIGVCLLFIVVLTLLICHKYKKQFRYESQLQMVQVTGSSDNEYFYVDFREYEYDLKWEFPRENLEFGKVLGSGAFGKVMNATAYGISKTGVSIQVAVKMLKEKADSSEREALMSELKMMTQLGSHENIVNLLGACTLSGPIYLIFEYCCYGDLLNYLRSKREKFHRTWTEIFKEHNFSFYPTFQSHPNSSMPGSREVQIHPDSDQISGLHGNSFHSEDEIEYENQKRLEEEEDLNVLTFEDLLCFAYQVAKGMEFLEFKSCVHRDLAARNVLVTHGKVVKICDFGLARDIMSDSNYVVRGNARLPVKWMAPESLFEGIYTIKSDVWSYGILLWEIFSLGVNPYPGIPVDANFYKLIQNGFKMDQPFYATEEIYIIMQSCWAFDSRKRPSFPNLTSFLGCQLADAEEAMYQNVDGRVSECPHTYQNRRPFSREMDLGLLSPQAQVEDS
Briefly: FLT3 Kinase Assay Kit, ADP production, luminescence, dose response. The format is biochemical.
Usually IC50 stands for the concentration at which inhibition is half-maximal. The low end stands for inhibition by little substance, the high end for a need for much substance. `CCOC(=O)c1c(NC(=O)CCl)sc2c1CCCC2` [compound 10, 10] yielded an IC50 of 40 ± 5.5 µM.

`CC1=CC(=O)N(Nc2ncnc3sc4c(c23)CCCC4)C1=O` [compound 8, 3-Methyl-1-(5,6,7,8-tetrahydrobenzo[4,5]thieno[2,3-d]pyrimidin-4-ylamino)-1H-pyrrole-2,5-dione] returned an IC50 of 40.5 ± 6.3 µM.

`O=C(CCl)NNc1ncnc2sc3c(c12)CCCC3` [compound 5, 2-Chloro-N′-(5,6,7,8,tetrahydrobenzo[4,5]thieno[2,3-d]pyrimidin-4-yl)acetohydrazide] had an IC50 of 32.4 ± 5.5 µM.

Turning to `CC(C)(C)c1cc(Nc2ncnc3sc4c(c23)CCCC4)on1` [9b, N-(3-tert-butylisoxazol-5-yl)-5,6,7,8-tetrahydrobenzo[4,5]thieno[2,3-d]pyrimidin-4-amine], the IC50 came out at 39.6 ± 4.6 µM.
